Source: patent publication US11641858B2, “Agricultural chemicals” (Redag Crop Protection Ltd, priority 2016, dated 2023)
Where two headings read alike, the source gives them in different places.

Experiments:
[1] = tested on: Phytophthora cinnamomi; experiment: Amended agar assay (potato dextrose agar), reduction in colony growth; assay type: cell-based; conditions: for inhibition of growth at 20 ppm / control over the fungal pathogens tested (in words): primary screen at 20 ppm; for inhibition of growth at 20 ppm: read-out: % control at 20 ppm; for EC50: read-out: Phytophthora cinnamomi (EC50)
Method: (§1) Testing was carried out on potato dextrose agar (PDA) amended with each compound at test concentrations of 20, 4 and 0.8, 0.16 and 0.032 ppm. Amended agar at each test concentration was poured into three replicate 9 cm petri dishes. Each replicate dish was inoculated in the centre with a 5 mm agar plug taken from the leading edge of a culture aged between 2 and 7 days old; the age of the culture was dependant on the growth rate of the pathogen being tested. The test pathogens were Pythium ultimum and Phytophthora cinnamomi. Plates were incubated at 18° C. and the diameter of each colony measured before growth on the fastest growing plate reached the plate edge. This varied between 2 and 7 days depending on the growth rate of test pathogens. The % reduction in colony growth compared to the control was calculated for each test concentration and pathogen combination.
(§2) The results are shown in Table 1 in which * represents an average control of up to 50% at said dosage; ** represents an average control of 50% or greater but less than 80% at said dosage; and *** represents an average control of 80% or greater at said dosage.
(§3) A primary screen was also conducted for a number of other compounds of the invention. The screen was conducted at 20 ppm and the results are provided in Table 2, in which D represents no control detected at this concentration; C represents up to 50% control; B from 50 to 99% control; and A represents a control of greater than 99%.
(§4) Alternatively, or in addition, the same assay was conducted at descending test concentrations with 5-fold dilutions typically down to 0.032 ppm, and an EC50 (the concentration at which 50% control would be achieved) was determined. The results are provided in Table 1 in which G represents an EC50 above 20 ppm, F represents an EC50 of 2-20 ppm and E represents and EC50 less than 2 ppm.

[2] = tested on: Pythium ultimum; experiment: as above; assay type: cell-based; conditions: for inhibition of growth at 20 ppm / EC50: Globisporangium ultimum; for inhibition of growth at 20 ppm / control over the fungal pathogens tested (in words): primary screen at 20 ppm; for inhibition of growth at 20 ppm: read-out: % control at 20 ppm; for EC50: read-out: Pythium ultimum (EC50)
Method: as §1, §2, §3, §4

[3] = Pythium ultimum, dose 0.032 ppm in amended agar
[4] = Pythium ultimum, dose 0.16 ppm in amended agar
[5] = Pythium ultimum, dose 0.8 ppm in amended agar
[6] = Pythium ultimum, dose 4 ppm in amended agar
[7] = Pythium ultimum, dose 20 ppm in amended agar
[8] = descending test concentrations, 5-fold dilutions typically down to 0.032 ppm

Row | EC50 [1, 8] [µg/mL] | EC50 [2, 8] [µg/mL] | SMILES | inhibition of growth at 20 ppm ([2]; Pythium ultimum) [%] | also measured
1 |  |  | Cn1nnnc1C(=NOCc1cccc(NC(=O)C(F)(F)Oc2ccccc2)n1)c1ccccc1 [A, reference compound] | > 99 | average % control at given dosage ([1]; dose 0.032 ppm in amended agar): *** (an average control of 80% or greater at said dosage); average % control at given dosage ([1]; dose 0.16 ppm in amended agar): *** (an average control of 80% or greater at said dosage); average % control at given dosage ([1]; dose 0.8 ppm in amended agar): *** (an average control of 80% or greater at said dosage); average % control at given dosage ([1]; dose 4 ppm in amended agar): *** (an average control of 80% or greater at said dosage); average % control at given dosage ([1]; dose 20 ppm in amended agar): *** (an average control of 80% or greater at said dosage); inhibition of growth at 20 ppm [1]: > 99%; average % control at given dosage [2, 3]: *** (an average control of 80% or greater at said dosage); average % control at given dosage [2, 4]: *** (an average control of 80% or greater at said dosage); average % control at given dosage [2, 5]: *** (an average control of 80% or greater at said dosage); average % control at given dosage [2, 6]: *** (an average control of 80% or greater at said dosage); average % control at given dosage [2, 7]: *** (an average control of 80% or greater at said dosage)
2 | < 2 | < 2 | Cn1nccc1-n1c(OCc2cccc(NC(=O)C(F)(F)Oc3ccccc3)n2)nc2ccccc21 [Example 4] | 50 to 99 | inhibition of growth at 20 ppm [1]: 50 to 99%
3 | < 2 | < 2 | Cn1nnnc1-n1c(OCc2cccc(NC(=O)CCC3CCCC3)n2)nc2ccccc21 [Example 26] |  | 
4 | < 2 | < 2 | CC(C)COC(=O)Nc1cccc(COc2nc3ccccc3n2-c2nnnn2C)n1 [Example 18] |  | 
5 | < 2 | < 2 | Cn1nnnc1-n1c(OCc2cccc(NC(=O)CCC(C)(C)C)n2)nc2ccccc21 [Example 45] |  | 
6 | < 2 | < 2 | Cn1nnnc1-n1c(OCc2cccc(NC(=O)CC3CCCC3)n2)nc2ccccc21 [Example 22, 2-Cyclopentyl-N-(6-(((1-(1-methyl-1H-tetrazol-5-yl)-1H-benzo[d]imidazol-2-yl)oxy)methyl)pyridin-2-yl)acetamide] |  | 
7 | > 20 | > 20 | C#CCC(=O)Nc1cccc(COc2nc3ccccc3n2-c2nnnn2C)n1 [Example 48] |  | 
8 | < 2 | < 2 | Cn1nnnc1-n1c(OCc2cccc(NC(=O)C(F)(F)Oc3ccccc3)n2)nc2ccccc21 [Example 1, 2,2-Difluoro-N-(6-(((1-(1-methyl-1H-tetrazol-5-yl)-1H-benzo[d]imidazol-2-yl)oxy)methyl)pyridin-2-yl)-2-phenoxyacetamide] | > 99 | control over the tested oomycete fungal plant pathogens (in words) ([1]; Table 1 doses 0.032-20 ppm, even at low concentrations): excellent control; average % control at given dosage ([1]; dose 0.032 ppm in amended agar): *** (an average control of 80% or greater at said dosage); average % control at given dosage ([1]; dose 0.16 ppm in amended agar): *** (an average control of 80% or greater at said dosage); average % control at given dosage ([1]; dose 0.8 ppm in amended agar): *** (an average control of 80% or greater at said dosage); average % control at given dosage ([1]; dose 4 ppm in amended agar): *** (an average control of 80% or greater at said dosage); average % control at given dosage ([1]; dose 20 ppm in amended agar): *** (an average control of 80% or greater at said dosage); control over the fungal pathogens tested (in words) [1]: excellent control; inhibition of growth at 20 ppm [1]: > 99%; control over the tested oomycete fungal plant pathogens (in words) ([2]; Pythium ultimum, Table 1 doses 0.032-20 ppm, even at low concentrations): excellent control; average % control at given dosage [2, 3]: *** (an average control of 80% or greater at said dosage); average % control at given dosage [2, 4]: *** (an average control of 80% or greater at said dosage); average % control at given dosage [2, 5]: *** (an average control of 80% or greater at said dosage); average % control at given dosage [2, 6]: *** (an average control of 80% or greater at said dosage); average % control at given dosage [2, 7]: *** (an average control of 80% or greater at said dosage); control over the fungal pathogens tested (in words) ([2]; Pythium ultimum): excellent control
9 | < 2 | < 2 | CSCC(=O)Nc1cccc(COc2nc3ccccc3n2-c2nnnn2C)n1 [Example 39, N-(6-(((1-(1-methyl-1H-tetrazol-5-yl)-1H-benzo[d]imidazol-2-yl)oxy)methyl)pyridin-2-yl)-2-(methylthio)acetamide] |  | 
10 | < 2 | < 2 | Cn1nnnc1-n1c(OCc2cccc(NC(=O)CC3CCCCC3)n2)nc2ccccc21 [Example 46] |  | 
11 | < 2 | < 2 | Cn1nnnc1-n1c(OCc2cccc(NC(=O)C(F)(F)Oc3ccccc3)n2)nc2c(F)cc(F)cc21 [Example 55] |  | 
12 | < 2 | < 2 | CC(C)CCC(=O)Nc1cccc(COc2nc3ccccc3n2-c2nnnn2C)n1 [Example 49] |  | 
13 |  |  | Cn1nnnc1-n1c(OCc2cccc(NC(=O)Oc3ccccc3)n2)nc2ccccc21 [Example 15] |  | EC50 [1]: < 2 µg/mL; EC50 [2]: < 2 µg/mL
14 | 2 to 20 | < 2 | Cc1nccnc1-n1c(OCc2cccc(NC(=O)C(F)(F)Oc3ccccc3)n2)nc2ccccc21 [Example 56] |  | 
15 | < 2 | < 2 | Cn1nnnc1-n1c(OCc2cccc(NC(=O)OC3CCCC3)n2)nc2ccccc21 [Example 12] |  | 
16 | < 2 | < 2 | Cn1nnnc1-n1c(OCc2cccc(NC(=O)C(F)(F)Oc3ccccc3)n2)nc2cc(C#N)ccc21 [Example 61] |  | 
17 | < 2 | < 2 | Cn1nnnc1-n1c(OCc2cccc(NC(=O)COCc3ccccc3)n2)nc2ccccc21 [Example 24] |  | 
18 | < 2 | < 2 | CCCCOC(=O)Nc1cccc(COc2nc3ccccc3n2-c2nnnn2C)n1 [Example 13] |  | 
19 | > 20 | > 20 | O=C(Nc1cccc(COc2[nH]c3ccccc3c2-c2ncncc2Cl)n1)C(F)(F)Oc1ccccc1 [Example 69, N-(6-(((3-(5-Chloropyrimidin-4-yl)-1H-indol-2-yl)oxy)methyl)pyridin-2-yl)-2,2-difluoro-2-phenoxyacetamide] |  | 
20 | > 20 | > 20 | O=C(Nc1cccc(COc2nc3ccccc3n2-c2ccccn2)n1)C(F)(F)Oc1ccccc1 [Example 7] |  | 
21 | < 2 | < 2 | CCC(=O)Nc1cccc(COc2nc3ccccc3n2-c2nnnn2C)n1 [Example 28] |  | 
22 | < 2 | < 2 | CCOC(=O)Nc1cccc(COc2nc3ccccc3n2-c2nnnn2C)n1 [Example 11, Ethyl (6-(((1-(1-methyl-1H-tetrazol-5-yl)-1H-benzo[d]imidazol-2-yl)oxy)methyl)pyridin-2-yl)carbamate] | > 99 | control over the fungal pathogens tested (in words) [1]: excellent control; inhibition of growth at 20 ppm [1]: 50 to 99%; control over the fungal pathogens tested (in words) ([2]; Pythium ultimum): excellent control
23 |  |  | Cc1noc(-n2c(OCc3cccc(NC(=O)C(F)(F)Oc4ccccc4)n3)nc3ccccc32)c1C [Example 5, N-(6-(((1-(3,4-Dimethylisoxazol-5-yl)-1H-benzo[d]imidazol-2-yl)oxy)methyl)pyridin-2-yl)-2,2-difluoro-2-phenoxyacetamide] | 50 to 99 | inhibition of growth at 20 ppm [1]: < 50%
24 | < 2 | < 2 | Cn1nnnc1-n1c(OCc2cccc(NC(=O)OC(C)(C)C)n2)nc2ccccc21 [Example 2] | > 99 | control over the fungal pathogens tested (in words) [1]: excellent control; inhibition of growth at 20 ppm [1]: > 99%; control over the fungal pathogens tested (in words) ([2]; Pythium ultimum): excellent control
25 | < 2 | < 2 | Cn1nnnc1-n1c(OCc2cccc(NC(=O)C3CCCC3)n2)nc2ccccc21 [Example 23] |  | 
26 |  |  | CC(=O)Nc1cccc(COc2nc3ccccc3n2-c2nnnn2C)n1 [Example 10, N-(6-(((1-(1-Methyl-1H-tetrazol-5-yl)-1H-benzo[d]imidazol-2-yl)oxy)methyl)pyridin-2-yl)acetamide] | 45 to 55 | inhibition of growth at 20 ppm [1]: 50 to 99%
27 | < 2 | < 2 | Cc1cccnc1-n1c(OCc2cccc(NC(=O)C(F)(F)Oc3ccccc3)n2)nc2ccccc21 [Example 3] | 50 to 99 | inhibition of growth at 20 ppm [1]: 50 to 99%
28 | > 20 |  | Cc1cccnc1-n1c(OCc2cccc(NC(=O)C(F)(F)Oc3ccccc3)n2)nc2ncccc21 [Example 66] | 50 to 99 | 
